Results from ChEMBL document CHEMBL1165922, “Vitamin D receptor agonist/histone deacetylase inhibitor molecular hybrids” (Bioorg Med Chem, 2010).
Active and inactive are the calls of the source. The calls are words filed in the database; no cut-off is given here.

Tests used:
Histone deacetylase 3 = Histone deacetylase 3 (Homo sapiens, UniProt O15379); test: Inhibition of HDAC3 after 10 mins by fluorometric assay
Mus musculus [1] = test: Toxicity in FVB mouse assessed as calcium level in blood at 240 pmol/day administered via osmotic pump for 6 to 7 days measured on day 4 by microchemistry (RVb = 2.11 mmol/L); format: organism-based; details: in vivo, other
Mus musculus [2] = test: Toxicity in FVB mouse assessed as calcium level in blood at 240 pmol/day administered via osmotic pump for 6 to 7 days measured on day 7 by microchemistry (RVb = […] mmol/L); format: organism-based; details: in vivo, other
Vitamin D3 receptor = target: T1, Vitamin D3 receptor (Homo sapiens, UniProt P11473)
T1 sequence (P11473 whole entry): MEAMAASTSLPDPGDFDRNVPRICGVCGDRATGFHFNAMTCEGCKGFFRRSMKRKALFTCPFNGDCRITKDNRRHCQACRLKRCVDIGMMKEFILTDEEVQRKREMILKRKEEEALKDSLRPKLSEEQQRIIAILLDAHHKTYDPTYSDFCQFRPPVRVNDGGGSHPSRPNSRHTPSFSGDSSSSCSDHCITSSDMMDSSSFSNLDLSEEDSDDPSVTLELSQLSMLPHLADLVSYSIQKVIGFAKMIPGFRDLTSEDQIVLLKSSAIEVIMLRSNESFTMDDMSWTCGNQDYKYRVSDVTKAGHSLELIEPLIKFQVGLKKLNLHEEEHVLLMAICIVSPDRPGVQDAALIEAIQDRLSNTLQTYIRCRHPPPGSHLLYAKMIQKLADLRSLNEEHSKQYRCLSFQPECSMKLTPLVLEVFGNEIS
Description: Binding affinity to VDR ligand binding domain by fluorescence polarization competition assay

AT84 = test: Antiproliferative activity against mouse AT84 cells at 100 to 500 nM after 48 hrs by EdU incorporation assay; format: functional, cell-based
Mus musculus [3] = test: Toxicity in FVB mouse assessed as calcium level in blood at 1200 pmol/day administered via osmotic pump for 6 to 7 days measured on day 7 by microchemistry (RVb = […] mmol/L); format: organism-based; details: in vivo, other
Mus musculus [4] = test: Toxicity in FVB mouse assessed as calcium level in blood at 1200 pmol/day administered via osmotic pump for 6 to 7 days measured on day 4 by microchemistry (RVb = 2.11 mmol/L); format: organism-based; details: in vivo, other
[5] = target: T2, Protein deacetylase HDAC6 (Homo sapiens, UniProt Q9UBN7); test: Inhibition of HDAC6 after 10 mins by fluorometric assay
T2 sequence (Q9UBN7 whole entry): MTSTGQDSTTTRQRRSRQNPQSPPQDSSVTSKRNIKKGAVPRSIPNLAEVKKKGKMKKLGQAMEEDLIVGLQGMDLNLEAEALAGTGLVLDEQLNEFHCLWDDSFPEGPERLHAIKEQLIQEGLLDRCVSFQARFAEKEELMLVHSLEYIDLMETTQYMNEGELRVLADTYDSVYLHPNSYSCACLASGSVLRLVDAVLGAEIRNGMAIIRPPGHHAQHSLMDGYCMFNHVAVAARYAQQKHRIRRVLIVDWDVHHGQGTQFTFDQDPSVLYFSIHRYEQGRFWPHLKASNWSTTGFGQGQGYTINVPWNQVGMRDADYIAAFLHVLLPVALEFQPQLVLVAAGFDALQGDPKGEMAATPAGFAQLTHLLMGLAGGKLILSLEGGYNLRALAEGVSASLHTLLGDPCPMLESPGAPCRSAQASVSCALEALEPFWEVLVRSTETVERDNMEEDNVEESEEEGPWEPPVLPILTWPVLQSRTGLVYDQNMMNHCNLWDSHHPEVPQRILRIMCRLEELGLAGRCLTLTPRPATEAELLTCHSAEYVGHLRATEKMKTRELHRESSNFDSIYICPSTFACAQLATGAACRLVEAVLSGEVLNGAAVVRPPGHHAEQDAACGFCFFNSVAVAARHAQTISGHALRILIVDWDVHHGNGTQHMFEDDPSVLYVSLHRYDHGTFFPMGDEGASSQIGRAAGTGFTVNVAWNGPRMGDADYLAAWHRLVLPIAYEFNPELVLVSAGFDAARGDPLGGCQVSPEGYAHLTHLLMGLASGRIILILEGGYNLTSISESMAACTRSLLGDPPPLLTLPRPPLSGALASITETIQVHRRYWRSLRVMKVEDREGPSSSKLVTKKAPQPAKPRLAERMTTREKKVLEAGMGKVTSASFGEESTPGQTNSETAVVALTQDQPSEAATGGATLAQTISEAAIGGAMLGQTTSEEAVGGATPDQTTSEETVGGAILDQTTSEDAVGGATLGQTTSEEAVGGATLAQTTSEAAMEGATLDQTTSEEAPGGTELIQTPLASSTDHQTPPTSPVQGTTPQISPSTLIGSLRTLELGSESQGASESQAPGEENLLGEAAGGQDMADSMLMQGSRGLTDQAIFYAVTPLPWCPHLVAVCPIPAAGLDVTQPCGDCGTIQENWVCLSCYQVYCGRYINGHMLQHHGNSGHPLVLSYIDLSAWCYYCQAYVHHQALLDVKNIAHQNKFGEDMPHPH

Histone deacetylase 2 = Histone deacetylase 2 (Homo sapiens, UniProt Q92769); test: Inhibition of HDAC2 after 10 mins by fluorometric assay
Mus musculus [6] = test: Toxicity in FVB mouse assessed as calcium level in blood at 240 pmol/day administered via osmotic pump for 6 to 7 days measured on day 3 by microchemistry (RVb = 2.24 mmol/L); format: organism-based; details: in vivo, other
Mus musculus [7] = test: Toxicity in FVB mouse assessed as calcium level in blood at 1200 pmol/day administered via osmotic pump for 6 to 7 days measured on day 6 by microchemistry (RVb = 2 mmol/L); format: organism-based; details: in vivo, other
Mus musculus [8] = test: Toxicity in FVB mouse assessed as calcium level in blood at 240 pmol/day administered via osmotic pump for 6 to 7 days measured on day 6 by microchemistry (RVb = 2 mmol/L); format: organism-based; details: in vivo, other
Mus musculus [9] = test: Toxicity in FVB mouse assessed as calcium level in blood at 1200 pmol/day administered via osmotic pump for 6 to 7 days measured on day 3 by microchemistry (RVb = 2.24 mmol/L); format: organism-based; details: in vivo, other
[10] = Ratio of compound to calcitriol antiproliferative activity against mouse AT84 cells; format: functional

Sequence of Histone deacetylase 2 (Q92769 whole entry): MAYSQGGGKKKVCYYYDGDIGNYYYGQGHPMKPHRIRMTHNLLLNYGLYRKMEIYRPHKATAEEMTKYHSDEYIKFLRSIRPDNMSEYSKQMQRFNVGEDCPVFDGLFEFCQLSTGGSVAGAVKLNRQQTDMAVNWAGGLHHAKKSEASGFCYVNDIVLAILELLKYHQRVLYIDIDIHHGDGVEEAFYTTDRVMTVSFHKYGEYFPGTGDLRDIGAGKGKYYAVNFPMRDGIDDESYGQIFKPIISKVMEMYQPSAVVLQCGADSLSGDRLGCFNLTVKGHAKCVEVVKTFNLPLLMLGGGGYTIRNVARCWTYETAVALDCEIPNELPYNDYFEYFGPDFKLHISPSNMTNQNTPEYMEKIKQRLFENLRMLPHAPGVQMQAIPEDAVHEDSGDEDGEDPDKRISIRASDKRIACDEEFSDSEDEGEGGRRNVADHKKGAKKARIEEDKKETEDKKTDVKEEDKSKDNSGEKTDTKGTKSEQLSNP
Sequence of Histone deacetylase 3 (O15379 whole entry): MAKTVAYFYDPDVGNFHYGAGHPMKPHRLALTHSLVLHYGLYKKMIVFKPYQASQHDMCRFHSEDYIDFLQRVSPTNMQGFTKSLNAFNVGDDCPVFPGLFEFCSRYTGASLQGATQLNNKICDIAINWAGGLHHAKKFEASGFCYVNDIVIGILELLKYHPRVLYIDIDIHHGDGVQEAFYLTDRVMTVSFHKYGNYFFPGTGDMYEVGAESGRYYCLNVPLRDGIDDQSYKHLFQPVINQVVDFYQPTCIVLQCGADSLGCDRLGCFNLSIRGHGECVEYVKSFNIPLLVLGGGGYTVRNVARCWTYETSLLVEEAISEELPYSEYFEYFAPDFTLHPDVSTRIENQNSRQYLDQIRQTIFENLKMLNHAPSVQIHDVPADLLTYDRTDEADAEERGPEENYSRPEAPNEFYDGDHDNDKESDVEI

| SMILES | IC50 (Histone deacetylase 3) | IC50 (Vitamin D3 receptor) | IC50 [5] | IC50 (Histone deacetylase 2) | Activity (Mus musculus [1]) | Activity (Mus musculus [2]) | Activity (AT84) | Activity (Mus musculus [3]) | Activity (Mus musculus [4]) | Activity (Mus musculus [6]) | Activity (Mus musculus [7]) | Activity (Mus musculus [8]) | Activity (Mus musculus [9]) | Ratio [10] |
| --- | --- | --- | --- | --- | --- | --- | --- | --- | --- | --- | --- | --- | --- | --- |
| C[C@H](CCCCC(=O)Nc1ccccc1N)[C@H]1CC[C@H]2/C(=C/C=C3C[C@@H](O)C[C@H](O)C3)CCC[C@]12C | 104 µM | 0.185 µM | 81.1 µM | 189 µM | 1.97 mmol/L | 1.8 mmol/L | Active | 2.09 mmol/L | 2.04 mmol/L |  |  |  |  |  |
| C[C@H](CCCCCNS(N)(=O)=O)[C@H]1CC[C@H]2/C(=C/C=C3C[C@@H](O)C[C@H](O)C3)CCC[C@]12C | 605 µM | 0.196 µM | 31.6 µM |  |  |  |  |  |  |  |  |  |  |  |
| CCCCS(=O)(=O)NCCCC[C@@H](C)[C@H]1CC[C@H]2/C(=C/C=C3C[C@@H](O)C[C@H](O)C3)CCC[C@]12C | 725 µM | 0.029 µM | 101 µM |  | 1.99 mmol/L | 2.05 mmol/L |  | 1.99 mmol/L | 2.12 mmol/L |  |  |  |  |  |
| C[C@H](CCCC(=O)Nc1ccccc1N)[C@H]1CC[C@H]2/C(=C/C=C3C[C@@H](O)C[C@H](O)C3)CCC[C@]12C | 460 µM | 0.524 µM | 330 µM |  |  |  |  |  |  | 1.89 mmol/L | 2.14 mmol/L | 2.05 mmol/L | 2.07 mmol/L |  |

Now those with a lower IC50 (Histone deacetylase 3), led by results:

| IC50 (Histone deacetylase 3) | IC50 (Vitamin D3 receptor) | IC50 [5] | IC50 (Histone deacetylase 2) | SMILES | Activity (Mus musculus [1]) | Activity (Mus musculus [2]) | Activity (AT84) | Activity (Mus musculus [3]) | Activity (Mus musculus [4]) | Activity (Mus musculus [6]) | Activity (Mus musculus [7]) | Activity (Mus musculus [8]) | Activity (Mus musculus [9]) | Ratio [10] |
| --- | --- | --- | --- | --- | --- | --- | --- | --- | --- | --- | --- | --- | --- | --- |
| 32.3 µM | 0.036 µM | 1.75 µM | 96.3 µM | C[C@H](CCCCNC(=O)CS)[C@H]1CC[C@H]2/C(=C/C=C3C[C@@H](O)C[C@H](O)C3)CCC[C@]12C | 2.03 mmol/L | 2.02 mmol/L | Active | 2.04 mmol/L | 2 mmol/L |  |  |  |  |  |
| 14.5 µM | 0.248 µM | 3 µM | 16.5 µM | C[C@H](CCCCC(=O)NO)[C@H]1CC[C@H]2/C(=C/C=C3C[C@@H](O)C[C@H](O)C3)CCC[C@]12C |  |  | Active |  |  | 1.93 mmol/L | 2.26 mmol/L | 1.93 mmol/L | 2.03 mmol/L | 20 |
| 3.2 µM |  | 9.3 µM |  | C[C@H](CCCC(=O)NO)[C@H]1CC[C@H]2/C(=C/C=C3C[C@@H](O)C[C@H](O)C3)CCC[C@]12C |  |  |  |  |  |  |  |  |  |  |
